Measurements reported in ChEMBL document CHEMBL1137118, “Definition of the heterocyclic pharmacophore of bacterial methionyl tRNA synthetase inhibitors: potent antibacterially active non-quinolone analogues” (Bioorg Med Chem Lett, 2004).
pIC50: −log10 of the molar value. In brackets after ≈: the same amount, converted by molar mass.

Experiments:
Enterococcus faecalis [1] = experiment: Antibacterial activity against Enterococcus faecalis 1; type: functional
Methionine--tRNA ligase = Methionine--tRNA ligase (Staphylococcus aureus subsp. aureus MW2, UniProt Q8NY00); experiment: Inhibitory concentration against Staphylococcus aureus methionyl tRNA synthetase
Staphylococcus aureus [2] = experiment: Antibacterial activity against Staphylococcus aureus Oxford; type: functional
Enterococcus faecalis [3] = experiment: Concentration required to inhibit 90% population of Enterococcus faecalis; type: functional
[4] = system: Staphylococcus epidermidis; experiment: Concentration required to inhibit 90% population of Staphylococcus epidermidis; type: functional
Enterococcus faecium = experiment: Concentration required to inhibit 90% population of Enterococcus faecium; type: functional
Staphylococcus aureus [5] = experiment: Concentration required to inhibit 90% population of Staphylococcus aureus; type: functional

MIC (Enterococcus faecalis [1]) | pIC50 (Methionine--tRNA ligase) | MIC (Staphylococcus aureus [2]) | MIC90 (Enterococcus faecalis [3]) | MIC90 [4] | MIC90 (Enterococcus faecium) | MIC90 (Staphylococcus aureus [5]) | SMILES
≤ 0.06 µg/mL | > 8.52 | 0.25 µg/mL (≈ 0.537 µM) |  |  |  |  | Oc1cc(NCCCNCc2cc(Br)cc(Br)c2)nc2ccccc12
≤ 0.06 µg/mL | 8.41 | 0.5 µg/mL (≈ 1.06 µM) |  |  |  |  | O=c1nc(NCCCNCc2cc(Br)cc(Br)c2)[nH]c2ccsc12
≤ 0.06 µg/mL | 8.40 | 0.13 µg/mL (≈ 0.276 µM) |  |  |  |  | Oc1cc(NCCCNCc2cc(Br)cc(Br)c2)nc2ccsc12
≤ 0.06 µg/mL | 7.89 | ≤ 0.06 µg/mL |  |  |  |  | Oc1nc(NCCCNC2CCNc3c(Br)cc(Br)cc32)nc2ccsc12 (centres undefined)
 | 5.74 |  |  |  |  |  | Oc1cc(NCCCNCc2cc(Cl)cc(Cl)c2Cl)cc2ccccc12
 | 7.00 |  |  |  |  |  | Clc1cc(Cl)c(Cl)c(CNCCCNc2ccc3ccccc3n2)c1
1 µg/mL (≈ 2.1 µM) | 7.80 | 0.5 µg/mL (≈ 1.05 µM) |  |  |  |  | CCc1cc(I)c2c(c1)C(NCCCNc1nc3ccccc3[nH]1)CCN2 (centres undefined)
 | > 8.52 |  |  |  |  |  | Oc1cc(NCCCNCc2cc(Cl)cc(Cl)c2Cl)nc2ccccc12
0.25 µg/mL (≈ 0.569 µM) | 8.30 | 0.5 µg/mL (≈ 1.14 µM) |  |  |  |  | Brc1cc(Br)cc(CNCCCNc2nc3ccc[nH]c-3n2)c1
≤ 0.06 µg/mL | > 8.52 | 0.13 µg/mL (≈ 0.309 µM) |  |  |  |  | CCOc1c(Cl)cc(Cl)cc1CNCCCNc1nc(O)c2ccccc2n1
8 µg/mL (≈ 18.1 µM) | 6.48 | > 64 µg/mL |  |  |  |  | O=C(NCCCNCc1cc(Br)cc(Br)c1)Nc1ccccc1
0.25 µg/mL (≈ 0.518 µM) | 7.77 | 1 µg/mL (≈ 2.07 µM) |  |  |  |  | CCOc1c(Br)cc(Br)cc1CNCCCNc1nc2ccccc2[nH]1
≤ 0.06 µg/mL | 7.89 | 0.25 µg/mL (≈ 0.522 µM) |  |  |  |  | Brc1cc(Br)c2c(c1)C(NCCCNc1nc3ccccc3[nH]1)CCN2 (centres undefined)
≤ 0.06 µg/mL | 8.09 | ≤ 0.06 µg/mL |  |  |  |  | Oc1nc(NCCCNC2CCNc3c(Cl)cc(Br)cc32)nc2ccccc12 (centres undefined)
≤ 0.06 µg/mL | 8.09 | 0.25 µg/mL (≈ 0.536 µM) |  |  |  |  | Oc1nc(NCCCNCc2cc(Br)cc(Br)c2)nc2ccccc12
 | 6.00 |  |  |  |  |  | O=c1cc(NCCCNCc2cc(Cl)cc(Cl)c2Cl)oc2ccccc12
0.5 µg/mL (≈ 0.982 µM) | > 8.52 | ≤ 0.06 µg/mL |  |  |  |  | CCc1cc(I)c2c(c1)C(NCCCNc1nc(O)c3sccc3n1)CCN2 (centres undefined)
0.13 µg/mL (≈ 0.297 µM) | 7.54 | 1 µg/mL (≈ 2.28 µM) |  |  |  |  | Brc1cc(Br)cc(CNCCCNc2nc3ccccc3[nH]2)c1
1 µg/mL (≈ 2.1 µM) | 7.74 | 0.25 µg/mL (≈ 0.525 µM) |  |  |  |  | CCc1cc(I)c2c(c1)C(NCCCNc1nc3ccc[nH]c-3n1)CCN2 (centres undefined)
0.5 µg/mL (≈ 1.27 µM) | > 8.52 | 2 µg/mL (≈ 5.08 µM) |  |  |  |  | CCOc1c(Cl)cc(Cl)cc1CNCCCNc1nc2ccccc2[nH]1

MIC (Enterococcus faecalis [1]) | pIC50 (Methionine--tRNA ligase) | MIC (Staphylococcus aureus [2]) | MIC90 (Enterococcus faecalis [3]) | MIC90 [4] | MIC90 (Enterococcus faecium) | MIC90 (Staphylococcus aureus [5]) | SMILES
> 64 µg/mL | < 6.00 | > 64 µg/mL |  |  |  |  | Oc1cc(-c2ccccc2)nc(NCCCNCc2cc(Br)cc(Br)c2)n1
0.5 µg/mL (≈ 1.14 µM) | 8.42 | 1 µg/mL (≈ 2.28 µM) |  |  |  |  | CCOc1c(Br)cc(Cl)cc1CNCCCNc1nc2ccccc2[nH]1
≤ 0.06 µg/mL | > 8.52 | ≤ 0.06 µg/mL |  |  |  |  | Oc1nc(NCCCNC2CCNc3c(Cl)cc(Br)cc32)nc2ccsc12 (centres undefined)
 | 7.42 | 32 µg/mL (≈ 84.8 µM) |  |  |  |  | Oc1cc(OCCCNCc2ccc(Cl)c(Cl)c2)nc2ccccc12
0.13 µg/mL (≈ 0.304 µM) | > 8.52 | 0.25 µg/mL (≈ 0.585 µM) |  |  |  |  | CCOc1c(Cl)cc(Cl)cc1CNCCCNc1nc(O)c2sccc2n1
≤ 0.06 µg/mL | 8.20 | ≤ 0.06 µg/mL |  |  |  |  | Brc1cc(Br)c2c(c1)[C@H](NCCCNc1nc3ncccc3[nH]1)CCN2
≤ 0.06 µg/mL | 8.31 | 0.13 µg/mL (≈ 0.252 µM) |  |  |  |  | CCOc1c(Br)cc(Br)cc1CNCCCNc1nc(O)c2sccc2n1
0.13 µg/mL (≈ 0.3 µM) | 7.77 | 1 µg/mL (≈ 2.31 µM) |  |  |  |  | CCOc1c(Br)cc(OC)cc1CNCCCNc1nc2ccccc2[nH]1
≤ 0.06 µg/mL | 7.96 | ≤ 0.06 µg/mL | 0.06 µg/mL (≈ 0.125 µM) | 0.5 µg/mL (≈ 1.04 µM) | 0.03 µg/mL (≈ 0.0625 µM) | 1 µg/mL (≈ 2.08 µM) | Brc1cc(Br)c2c(c1)C(NCCCNc1nc3ncccc3[nH]1)CCN2 (centres undefined)
≤ 0.06 µg/mL | > 8.52 | 0.13 µg/mL (≈ 0.279 µM) |  |  |  |  | CCOc1c(Br)cc(Cl)cc1CNCCCNc1nc(O)c2ccccc2n1
≤ 0.06 µg/mL | 8.48 | 0.25 µg/mL (≈ 0.535 µM) |  |  |  |  | CCOc1c(Br)cc(OC)cc1CNCCCNc1nc(O)c2sccc2n1
> 64 µg/mL | 6.24 | > 64 µg/mL |  |  |  |  | Oc1nc(NCCCNCc2cc(Br)cc(Br)c2)nc2c1CCC2
 | 6.17 | > 64 µg/mL |  |  |  |  | Oc1cc(SCCCNCc2ccc(Cl)c(Cl)c2)nc2ccccc12
≤ 0.06 µg/mL | 8.21 | 0.25 µg/mL (≈ 0.531 µM) |  |  |  |  | Oc1cc(NCCCNCc2cc(Br)cc(Br)c2)nc2sccc12
32 µg/mL (≈ 67.8 µM) | 6.82 | > 64 µg/mL |  |  |  |  | Oc1nc(NCCCNCc2cc(Br)cc(Br)c2)nc2sccc12
≤ 0.06 µg/mL | 8.01 | 0.13 µg/mL (≈ 0.255 µM) |  |  |  |  | CCOc1c(Br)cc(Br)cc1CNCCCNc1nc2ccccc2c(=O)[nH]1
0.25 µg/mL (≈ 0.497 µM) | 7.77 | ≤ 0.06 µg/mL |  |  |  |  | CCc1cc(I)c2c(c1)C(NCCCNc1nc(O)c3ccccc3n1)CCN2 (centres undefined)
0.13 µg/mL (≈ 0.276 µM) | > 8.52 | 0.13 µg/mL (≈ 0.276 µM) |  |  |  |  | CCOc1c(Br)cc(Cl)cc1CNCCCNc1nc(O)c2sccc2n1
0.25 µg/mL (≈ 0.541 µM) | 7.27 | 0.5 µg/mL (≈ 1.08 µM) |  |  |  |  | N#Cc1c(NCCCNCc2cc(Br)cc(Br)c2)[nH]c2ccccc12
≤ 0.06 µg/mL | 8.15 | 0.13 µg/mL (≈ 0.282 µM) |  |  |  |  | CCOc1c(Br)cc(OC)cc1CNCCCNc1nc(O)c2ccccc2n1
